A word on the EC50: it is the midpoint of the concentration-response curve. As usually defined, the Emax is the greatest response seen or fitted, relative to the assay's reference.

The assay relates to ATDC5 cells. Put plainly: Chondrogenesis activity assay in ATDC5 cells (collagen type II induction, immunofluorescence). Format: cell-based, mouse. As to conditions: Mus musculus; for EC50: collagen type II induction in ATDC5 cells, concentration reaching 50% of maximum induction; for Emax: maximum percent induction of collagen type II relative to internal reference compound at 10 μM, ATDC5 cells. The procedure:
A) Chondrogenesis Activity Assay in ATDC5 Cells
The chondrogenic potential of the compounds of the invention was determined using clonal mouse chondrogenic ATDC5 cells (T. Atsumi et al., Cell Differ. Dev. 1990, 30, 109-116). ATDC5 cells are derived from mouse embryonic AT805 teratocarcinoma cells and are used frequently to study the multistep chondrogenic differentiation process from precursor cells into chondrocytes (C. Shukunami et al., Exp. Cell Res. 1998, 241, 1-11; H. Aklyami et al., J. Bone Miner. Res. 1996, 11, 22-28; H. Akiyami et al., Biochem. Biophys. Res. Commun. 1997, 235, 142-147; C. Shukunami et al., J. Cell Biol. 1996, 133, 457-468; C. Shukunami et al., J. Bone Miner. Res. 1997, 12, 1174-1188). Undifferentiated ATDC5 cells grow in vitro until confluence, showing a fibroblast-like morphology. In the presence of insulin, cells undergo transient condensation and form numerous nodular structures (cartilage nodules). The cartilagenous nature of these nodules was shown by Alcian Blue staining as evidence of the production of proteoglycan (aggrecan) and collagen type II expression (by expression analysis), both molecular markers of chondrocytes (C. Shukunami et al., J. Cell Biol. 1996, 133, 457-468).
Chondrogenic differentiation of ATDC5 cells into chondrocytes by the compounds of the invention was determined by measuring the induction of type II collagen protein as a marker of chondrocytes, a structural component of the extracellular matrix which constitutes more than 80% of cartilage mass (D. R. Eyre, Clin. Orthop. Relat. Res. 2004, 427 Suppl, S118-S122). ATDC5 cells were obtained from RIKEN and cultured as monolayer in basal culture medium (Dulbecco's Modified Eagle Medium/Nutrient Mixture F-12 (DMEM/F12, Invitrogen, #31331-093) supplemented with 10 μg/ml Transferrin (Roche, #10652 202001), 3×10E−8 M sodium seienite (Sigma, #S-5261) and 5% Fetal Calf Serum (FCS Gold, PAA, #A15-251)), at 37° C., and 5% CO2 in plastic flasks of 75 cm^2 or 300 cm^2 subconfluently for propagation. ATDC5 cells were harvested and resuspended in differentiation culture medium that consisted of basal culture medium complemented with 10 μg/ml insulin (Sigma, #19278), to initiate chondrogenic differentiation. For studying the effect of test compounds, the ATDC5 cells were plated in 96-well plates (3.0×10E4 cells per well in 200 μl of differentiation culture medium). Test compounds dissolved in DMSO were added to yield increasing compound concentrations, typically from 40 nM to 10 μM, and a final DMSO concentration of 0.1%. On each 96-well plate, control wells containing no test compound but the same concentration of DMSO, i.e. untreated cells, were included and used as reference for the determination of the effect of the test compounds on the cells, and wells containing an internal reference compound at a concentration of 10 μM were included and used as positive control and for standardizing the results. Cells in the wells were incubated for 4 days at 37° C., and 5% CO2, followed by quantification of intracellular collagen type II.
Quantification of collagen type II in the ATDC5-cells was done by immunofluorescence staining of collagen type II, and fluorescence intensity was measured using a cellular high content imaging system (ImageXpress, Molecular Device). For immunofluorescence staining of intracellular collagen, medium was removed after compound incubation and cells were fixed with 200 μl/well methanol/water (95%/5%). Cells were permeabilized in 200 μl/well phosphate-buffered saline (PBS) containing 0.2% Triton X100 for 15 min and, after removal of the solution, blocked for 30 min with 200 μl/well PBS/0.2% Triton X100 containing 1% bovine serum albumin (BSA) to avoid unspecific binding. After the blocking step, the solution was removed and collagen type II staining solution was added. […]

Structures are written as SMILES.

The compound `CCn1c2c(-c3cccnc3Cl)cc(Cl)cc2c2ccnc(C)c21` [Example 58, 6-Chloro-8-(2-chloro-pyridin-3-yl)-9-ethyl-1-methyl-9H-pyrido[3,4-b]indole] gave an EC50 of 1500 nM and an Emax of 20 to 50%.

As to `CCn1c2c(-c3ccc(Cl)nc3Cl)cc(Cl)cc2c2ccnc(C)c21` [Example 59, 6-Chloro-8-(2,6-dichloro-pyridin-3-yl)-9-ethyl-1-methyl-9H-pyrido[3,4-b]indole], the EC50 turned out to be 1300 nM and the Emax was > 80%. For `N#Cc1ccc(-c2cc(Cl)cc3c4ccncc4n(CC(F)(F)F)c23)cn1` [Example 60, 5-[6-Chloro-9-(2,2,2-trifluoro-ethyl)-9H-pyrido[3,4-b]indol-8-yl]-pyridine-2-carbonitrile], in that order: 2500 nM and 20 to 50%. The like results for `FC(F)(F)Cn1c2cnccc2c2cc(Cl)cc(-c3cnc4ccccc4c3)c21` [Example 61, 6-Chloro-8-quinolin-3-yl-9-(2,2,2-trifluoro-ethyl)-9H-pyrido[3,4-b]indole] were, in that order, 5600 nM and > 80%.

With `COc1ccc(-c2cc(Cl)cc3c4ccncc4n(CC(F)(F)F)c23)cn1` [Example 62, 6-Chloro-8-(6-methoxy-pyridin-3-yl)-9-(2,2,2-trifluoro-ethyl)-9H-pyrido[3,4-b]indole], the EC50 was 1200 nM and the Emax is > 80%. For `Fc1ccc(-c2cc(Cl)cc3c4ccncc4n(CC(F)(F)F)c23)c(F)n1` [Example 63, 6-Chloro-8-(2,6-difluoro-pyridin-3-yl)-9-(2,2,2-trifluoro-ethyl)-9H-pyrido[3,4-b]indole], in that order: 590 nM and 20 to 50%. For `Cc1nccc2c1[nH]c1c(-c3ccc(Cl)nc3Cl)cc(Cl)cc12` [Example 64, 6-Chloro-8-(2,6-dichloro-pyridin-3-yl)-1-methyl-9H-pyrido[3,4-b]indole], in that order: 3900 nM and > 80%. In turn, `Cc1nccc2c1[nH]c1c(-c3cccnc3)cc(Cl)cc12` [Example 65, 6-Chloro-1-methyl-8-pyridin-3-yl-9H-pyrido[3,4-b]indole] returned an EC50 of 2300 nM and a maximal effect (Emax) of 20 to 50%. For `FC(F)(F)Cn1c2cnccc2c2cc(Cl)cc(-c3ccc(Cl)nc3)c21` [Example 66, 6-Chloro-8-(6-chloro-pyridin-3-yl)-9-(2,2,2-trifluoro-ethyl)-9H-pyrido[3,4-b]indole], in that order: 2100 nM and 50 to 80%.

Take `CCn1c2cnccc2c2cc(Cl)cc(-c3ccc(C)nc3)c21` [Example 67, 6-Chloro-9-ethyl-8-(6-methyl-pyridin-3-yl)-9H-pyrido[3,4-b]indole]: the concentration for a half-maximal effect (EC50) stood at 740 nM and the Emax is 20 to 50%. In turn, `Cc1ccc(-c2cc(Cl)cc3c4ccncc4n(CC(F)(F)F)c23)cn1` [Example 68, 6-Chloro-8-(6-methyl-pyridin-3-yl)-9-(2,2,2-trifluoro-ethyl)-9H-pyrido[3,4-b]indole] returned an EC50 of 7600 nM and an Emax of 50 to 80%. For the compound `FC(F)(F)Cn1c2cnccc2c2cc(Cl)cc(-c3cnccc3Cl)c21` [Example 69, 6-Chloro-8-(4-chloro-pyridin-3-yl)-9-(2,2,2-trifluoro-ethyl)-9H-pyrido[3,4-b]indole], a half-maximal response (EC50) required 2000 nM and the Emax fell in the range of 50 to 80%. The like results for `CCn1c2cnccc2c2cc(Cl)cc(-c3ccc(OC)nc3)c21` [Example 70, 6-Chloro-9-ethyl-8-(6-methoxy-pyridin-3-yl)-9H-pyrido[3,4-b]indole] were, in that order, 570 nM and > 80%. The like results for `FC(F)(F)Cn1c2cnccc2c2cc(Cl)cc(-c3cnc4[nH]ccc4c3)c21` [Example 71, 6-Chloro-8-(1H-pyrrolo[2,3-b]pyridin-5-yl)-9-(2,2,2-trifluoro-ethyl)-9H-pyrido[3,4-b]indole] were, in that order, 1500 nM and < 20%. The like results for `COc1ccc(-c2cc(Cl)cc3c2[nH]c2cnccc23)cn1` [Example 72, 6-Chloro-8-(6-methoxy-pyridin-3-yl)-9H-pyrido[3,4-b]indole] were, in that order, 5800 nM and 20 to 50%. `Clc1cc(-c2ccc(Cl)nc2)c2[nH]c3cnccc3c2c1` [Example 73, 6-Chloro-8-(6-chloro-pyridin-3-yl)-9H-pyrido[3,4-b]indole] showed an EC50 of 440 nM and an Emax of 20 to 50%.

`Clc1cc(-c2ccc(Cl)nc2Cl)c2[nH]c3cnccc3c2c1` [Example 74, 6-Chloro-8-(2,6-dichloro-pyridin-3-yl)-9H-pyrido[3,4-b]indole] had an EC50 of 920 nM and an Emax of 20 to 50%.

On to `FC(F)(F)Cn1c2cnccc2c2cc(Cl)cc(-c3csc(Cl)c3)c21` [Example 76, 6-Chloro-8-(5-chloro-thiophen-3-yl)-9-(2,2,2-trifluoro-ethyl)-9H-pyrido[3,4-b]indole], for which the maximal response (Emax) lay in the range of 20 to 50%.

For `Cc1nccc2c1[nH]c1c(-c3ccc(Cl)nc3)cc(Cl)cc12` [Example 77, 6-Chloro-8-(6-chloro-pyridin-3-yl)-1-methyl-9H-pyrido[3,4-b]indole], the EC50 worked out at 580 nM and the Emax was > 80%. For `CCn1c2c(-c3cncc(Cl)c3)cc(Cl)cc2c2ccnc(C)c21` [Example 78, 6-Chloro-8-(5-chloro-pyridin-3-yl)-9-ethyl-1-methyl-9H-pyrido[3,4-b]indole], in that order: > 10000 nM and < 20%. The like results for `CCn1c2c(-c3ccc(Cl)nc3)cc(Cl)cc2c2ccnc(C)c21` [Example 79, 6-Chloro-8-(6-chloro-pyridin-3-yl)-9-ethyl-1-methyl-9H-pyrido[3,4-b]indole] were, in that order, 3900 nM and > 80%. For `FC(F)(F)Cn1c2cnccc2c2cc(Cl)cc(-c3ccc(NC4CCCCC4)nc3)c21` [Example 80, (5-[6-Chloro-9-(2,2,2-trifluoro-ethyl)-9H-pyrido[3,4-b]indol-8-yl]-pyridin-2-yl)-cyclohexyl-amine], in that order: 1200 nM and 20 to 50%. Take `FC(F)(F)Cn1c2cnccc2c2cc(Cl)cc(-c3ccc(N4CCCC4)nc3)c21` [Example 81, 6-Chloro-8-(6-pyrrolidin-1-yl-pyridin-3-yl)-9-(2,2,2-trifluoro-ethyl)-9H-pyrido[3,4-b]indole]: the EC50 was found to be 4100 nM and the Emax was > 80%. For `Fc1cncc(-c2cc(Cl)cc3c4ccncc4n(CC(F)(F)F)c23)c1` [Example 82, 6-Chloro-8-(5-fluoro-pyridin-3-yl)-9-(2,2,2-trifluoro-ethyl)-9H-pyrido[3,4-b]indole], a half-maximal response (EC50) required 2000 nM and the Emax was 20 to 50%.

In the case of `Cc1nc(Cl)ccc1-c1cc(Cl)cc2c3ccncc3n(CC(F)(F)F)c12` [Example 83, 6-Chloro-8-(6-chloro-2-methyl-pyridin-3-yl)-9-(2,2,2-trifluoro-ethyl)-9H-pyrido[3,4-b]indole], the EC50 amounted to 2100 nM and the Emax is 20 to 50%. The like results for `CN(C)c1ccc(-c2cc(Cl)cc3c4ccncc4n(CC(F)(F)F)c23)cn1` [Example 84, (5-[6-Chloro-9-(2,2,2-trifluoro-ethyl)-9H-pyrido[3,4-b]indol-8-yl]-pyridin-2-yl)-dimethyl-amine] were, in that order, > 10000 nM and 20 to 50%.

Source of the values: US12275733B2, “Substituted pyrido[3,4-b]indoles for the treatment of cartilage disorders” (Sanofi, priority 2016, dated 2025).
